Reference: patent publication EP3269373A1, “LOW-DOSED ORAL DOSAGE FORM OF AN AKR1C3 INHIBITOR FOR TREATMENT OF DISEASES” (Bayer Pharma Aktiengesellschaft, priority 2016, dated 2018)

Assays:
[1] = Single dose study in healthy postmenopausal women (safety, plasma bilirubin); type: in vivo
Description: Single center, randomized, placebo-controlled, double-blind and parallel group study. For the 30 mg group only, a one sequence cross-over design was applied to estimate the relative bioavailability of a liquid versus a solid formulation.
In this study the AKR1C3 inhibitor was administered as a single oral dose. Eight volunteers per treatment group were included. Two volunteers per treatment group were allocated to placebo in a randomized, double-blind fashion in order to assess non-drug related factors in the safety evaluation. To ensure that 8 subjects were treated, during the pre-dose phase at least 1 backup subject had to undergo all necessary measurements to compensate for the risk that a person had to be excluded immediately before dosing due to safety concerns.
Forty-six (46, 76.7%) out of 60 treated subjects were treated with the AKR1C3 inhibitor (6 subjects per group at dose levels 1 mg, 3 mg, 10 mg, 30 mg, 120 mg, 240 mg; 5 subjects per group at 60 mg and 90 mg) and 14 subjects (23.3%) received placebo (2 subjects each in the 1 mg, 3 mg, 30 mg, 60 mg, 120 mg and 240 mg groups, and 1 subject each in the 10 mg and 90 mg groups). All 60 treated subjects (100%) completed the study and were included in the statistical analyses of safety (SAF: N=60). One out of 60 treated subjects was not valid for the analysis of pharmacodynamics due to vomiting before two times tmax (PDS: N=59). This same subject was also excluded from the PK analysis of the 46 verum-treated subjects, and all 14 placebo-treated subjects were not valid for the analysis of PK (PKS: N=45).
Bilirubin was measured employing a standard laboratory kit.

[2] = Embryonic (embryo-fetal) development study in rabbits; type: in vivo; conditions: for NOAEL: female, po, pregnant rabbits, oral gavage once daily, Day 6 to Day 19 of gestation
Description: However, the incidence of some foetal structural variations (= mild foetal structural abnormalities) was increased at the mid dose of 20 mg/kg and higher. […] Table 2: Preclinical safety margins
The control received the vehicle in the same manner. All F0-females were sacrificed on Day 29 of gestation and the following parameters were recorded after removal and examination of the ovaries and the uteri: Number of corpora lutea, number and state of implantation sites (i.e, live foetus, early and late interauterine deaths, dead fetuses). […] Dead fetuses were classified as those which appeared to have died shortly before necropsy. Live foetuses were euthanised by an intraperitoneal injection of sodium pentobarbitone. Individual foetal and placental weights were recorded and foetuses were examined for external abnormalities and sexed by external observation. All fetuses in each litter were examined for visceral abnormalities by microdissection, eviscerated and the carcasses processed and Alizarin Red S stained for skeletal examination. The intact heads of approximately one half of the fetuses in each litter were removed after the fetuses were killed and were processed in Bouin's fluid. The heads were then examined by the Wilson sectioning method. Foetal abnormalities were classified as malformations (rare and/or potentially lethal defects) and variations (commonly occurring non-lethal abnormalities). […] These variations were related to sternebra. […] This finding was not present in the background data. […] Thus, in summary, the NOAEL for maternal toxicity is considered to be 70 mg/kg. The NOAEL for developmental toxicity is regarded as 5 mg/kg due to the occurrence of foetal findings classified as variations at the dose of 20 mg/kg and higher.

[3] = Multiple dose study Part B in healthy premenopausal tubal-ligated women, 28 days (safety, plasma bilirubin); type: in vivo; conditions: for Plasma bilirubin concentrations above the upper limit of normal (subjects): tablets
Description: (§1) Plasma bilirubin levels were assessed prior to dosing and 1, 2, 6 and 14 days after drug administration. […] 30 mg (once daily), 90 mg (once daily) or 60 mg (twice daily) per 70 kg body weight for women of the AKR1C3 inhibitor over 14 days. Plasma bilirubin levels were assessed prior to dosing and 1, 2, 6, 10, 13, 15, 19 days after drug administration and at final examination. […] Plasma bilirubin levels were assessed prior to dosing and on cycle days 8, 12, 15, 22, 29, 33 after start of drug administration and at the follow up examinations.
(§2) The study was performed as an ascending dose study after multiple oral doses of the AKR1C3 inhibitor or placebo in 27 healthy postmenopausal (PM) women, aged 45 to 68 years (Part A) and 18 healthy tubal-ligated (TL) women, aged 18 to 48 (Part B).
The study consists of two parts: Part A was performed in healthy postmenopausal women (randomized within each dose level and placebo-controlled), Part B in healthy premenopausal women with tubal-ligation (open label; intraindividual comparison to pre-treatment cycle) with 28 days treatment (i.e. approx. one menstrual cycle). The safety of 30 mg once daily, 90 mg once daily, 60 mg twice/day of the AKR1C3 inhibitor given over 14 days was assessed in postmenopausal women prior to exposing premenopausal women to the corresponding doses of 60 mg once daily, 60 mg twice/day over 28 days. • Part A and Part B were further divided into different periods: • Part A: screening, pre-dose, treatment period 1 with single dose administration, treatment period 2 with multiple dose administration on 14 consecutive days and follow-up. […] Three increasing dosages of the AKR1C3 inhibitor were tested: 30 mg once daily, 90 mg once daily and 60 mg twice daily. In addition, a lower dose 3 mg once daily was evaluated. Nine volunteers per dose level were included into the study; thereof, n = 7 women were randomly assigned to treatment with the respective dose and n = 2 to placebo treatment. The study drug was administered in a double-blind manner within one dose level, i.e. all volunteers of that dose level received the same number of tablets identical in appearance. • Part B: screening, pre-dose (pre-treatment cycle), treatment period with multiple dose administration on 28 consecutive days and follow-up.

[4] = Multiple dose study Part A in healthy postmenopausal women, 14 days (safety, plasma bilirubin); conditions: for Plasma bilirubin concentrations above the upper limit of normal (subjects): tablets
Description: as §1, §2
The study consists of two parts: Part A was performed in healthy postmenopausal women (randomized within each dose level and placebo-controlled), Part B in healthy premenopausal women with tubal-ligation (open label; intraindividual comparison to pre-treatment cycle) with 28 days treatment (i.e. approx. one menstrual cycle). The safety of 30 mg once daily, 90 mg once daily, 60 mg twice/day of the AKR1C3 inhibitor given over 14 days was assessed in postmenopausal women prior to exposing premenopausal women to the corresponding doses of 60 mg once daily, 60 mg twice/day over 28 days. • Part A and Part B were further divided into different periods: • Part A: screening, pre-dose, treatment period 1 with single dose administration, treatment period 2 with multiple dose administration on 14 consecutive days and follow-up. A wash-out period between treatment period 1 (administration day) and treatment period 2 (first administration) of at least 14 days and not more than 28 days was necessary. Women received the study medication in a fasted state in period 1 (single dose) as well as on day 14 of period 2 (multiple dose). On day 1 of period 2 the study medication was given after breakfast to evaluate the food effect. Three increasing dosages of the AKR1C3 inhibitor were tested: 30 mg once daily, 90 mg once daily and 60 mg twice daily. In addition, a lower dose 3 mg once daily was evaluated. Nine volunteers per dose level were included into the study; thereof, n = 7 women were randomly assigned to treatment with the respective dose and n = 2 to placebo treatment. The study drug was administered in a double-blind manner within one dose level, i.e. all volunteers of that dose level received the same number of tablets identical in appearance. • Part B: screening, pre-dose (pre-treatment cycle), treatment period with multiple dose administration on 28 consecutive days and follow-up. In the pre-dose period, hormonal changes during a menstrual cycle including evidence of ovulation were evaluated. Study drug administration started on day 4 of the menstrual bleeding after end of the pre-treatment cycle, the study drug was then be taken on 28 consecutive days, independent of further menstrual bleedings. The pre-treatment cycle can be separated by up to 2 menstrual cycles from the treatment period.
Total bilirubin concentrations were monitored throughout this study.Bilirubin was measured employing a standard laboratory kit. The tests were performed according to the instructions as provided by the manufacturer (Beckman coulter kit AU680).

[5] = Risk assessment on reproductive and developmental toxicities (exposure ratios animal:human) combined with clinical studies
Description: According to that regulatory guidance, there is increased concern for reproductive or developmental toxicity in humans for relative exposure ratios (animal: human) that are <10 and decreased concern for exposure ratios >25.

[6] = cited from earlier work
AKR1C3 = biological target: T1, AKR1C3 (Homo sapiens, UniProt P42330); conditions: as disclosed in WO 2013045407; cited from earlier work
T1 sequence (P42330 1-323): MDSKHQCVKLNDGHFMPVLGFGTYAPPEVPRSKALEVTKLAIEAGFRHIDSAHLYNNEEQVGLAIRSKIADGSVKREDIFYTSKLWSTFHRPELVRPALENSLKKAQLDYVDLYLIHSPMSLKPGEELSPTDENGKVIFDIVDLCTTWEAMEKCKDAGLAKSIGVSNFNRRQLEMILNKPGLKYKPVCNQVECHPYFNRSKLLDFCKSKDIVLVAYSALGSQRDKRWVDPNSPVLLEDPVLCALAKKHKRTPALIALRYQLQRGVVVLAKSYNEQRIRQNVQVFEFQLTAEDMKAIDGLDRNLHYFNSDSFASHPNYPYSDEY

[7] = Embryonic (embryo-fetal) development study in rats; type: in vivo; conditions: for NOAEL: female, rat, in vivo, po, pregnant rats, oral gavage once daily, Day 6 to Day 17 of gestation
Description: The NOAEL for developmental toxicity in rats is consequently the mid dose of 17 mg/kg.
The control received the vehicle in the same manner. All F0-females were sacrificed on Day 21 of gestation and the following parameters were recorded after removal and examination of the ovaries and the uteri: Number of corpora lutea, number and state of implantation sites (i.e, live foetus, early and late interauterine deaths, dead fetuses). […] Dead fetuses were classified as those which appeared to have died shortly before necropsy. Live foetuses were euthanised by a subcutaneous injection of sodium pentobarbitone. Individual foetal and placental weights were recorded and foetuses were examined for external abnormalities and sexed by external observation. Afterwards, approximately one half of the foetuses in each litter were examined for visceral abnormalities by microdissection. They were then eviscerated and the carcasses processed and Alizarin Red S stained for skeletal examination. The remaining foetuses were fixed in Bouin's fluid and examined for visceral abnormalities by the Wilson sectioning method. Foetal abnormalities were classified as malformations (rare and/or potentially lethal defects) and variations (commonly occurring non-lethal abnormalities).

With `CN(CCC(=O)O)C(=O)c1ccc2c(c1)CC[C@@H]1[C@@H]2CC[C@]2(C)C(c3cncc(F)c3)=CC[C@@H]12` [AKR1C3 inhibitor, N-{[17-(5-Fluoropyridin-3-yl)estra-1,3,5(10),16-tetraen-3-yl]carbonyl}-N-methyl-β-alanine] the “drug-related TEAE headache” value ([1]; female, human, in vivo) was 21.7%, the “drug-related TEAE nausea” value ([1]; female, human, in vivo) was 15.2% and the “drug-related TEAE vomiting” value ([1]; female, human, in vivo) was 13.0%. For the same molecule, the “Serious treatment-emergent adverse events (TEAEs)” value ([1]; in vivo) was “not reported”, the indication for hemolysis ([1]; in vivo) was “no indication for hemolysis” and the “signs of drug-induced liver injury (DILI)” value ([1]; in vivo) was “no signs of drug-induced liver injury (DILI) have been detected”. The maximum tolerated dose ([1]; single dose) was 120 mg, the “well tolerated up to a single dose” value ([1]; single oral dose) was at most 120 mg and the NOAEL ([2]; rabbit, in vivo, doses 0, 5, 20, 70 mg/kg, read-out: NOAEL for dev. toxicity) was 5 mg/kg. For the same molecule, the NOAEL ([2]; rabbit, in vivo, read-out: NOAEL for maternal toxicity) was 70 mg/kg, the “occurrence of sternebra with increased ossification” value ([2]; rabbit, in vivo, 5 mg/kg) was “very low incidence” and the “incidence of some foetal structural variations” value ([2]; rabbit, in vivo, 20 mg/kg) was “increased”. The “incidence of a discoloured thymus in fetuses” value ([2]; rabbit, in vivo, 70 mg/kg) was “slightly higher incidence”, the “higher systemic exposure (AUCunbound) at NOAEL than expected clinical exposure” value (“higher systemic exposure (AUCunbound)” below) ([2]; rabbits at 5 mg/kg vs once daily 3 mg/day in humans) was about 17 fold and the “higher systemic exposure (AUCunbound)” value ([2]; rabbits at 5 mg/kg vs twice daily 60 mg/day in humans) was “approximately 0.3 fold”. For the same molecule, the “Plasma bilirubin concentrations above the upper limit of normal (subjects)” value ([3]; 60 mg once daily over 28 days) was 1 of 9, the “changes in plasma bilirubin” value ([3]; 60 mg once daily, premenopausal women, 4 weeks of treatment) was “increases in plasma bilirubin were observed in a small fraction of subjects” and the “Plasma bilirubin concentrations above the upper limit of normal (subjects)” value ([3]; 60 mg twice daily over 28 days) was 2 of 9. For the same molecule, the “changes in plasma bilirubin” value ([3]; 60 mg twice daily, 28 days) was “increase in plasma bilirubin was observed in a significant fraction of subjects”, the “Plasma bilirubin concentrations above the upper limit of normal (subjects)” value ([4]; 60 mg twice daily over 14 days) was 5 of 7 and the “changes in plasma bilirubin” value ([4]; 60 mg twice daily, 14 days) was “increase in plasma bilirubin was observed in a significant fraction of subjects”. For the same molecule, the “Plasma bilirubin concentrations above the upper limit of normal (subjects)” value ([4]; 90 mg once daily over 14 days) was 1 of 7, the “changes in plasma bilirubin” value ([4]; 90 mg once daily, postmenopausal women, 2 weeks of treatment) was “increases in plasma bilirubin were observed in a small fraction of subjects” and the “well tolerated up to a dose” value ([4]; multiple dosing, women) was at most 60 mg twice daily. The “changes in plasma bilirubin” value ([4]; up to 30 mg once daily / 70 kg body weight, single and repeat dosing up to 14 days) was “no changes in plasma bilirubin were observed”, the “dose of decreased concern for reproductive or developmental toxicity in humans” value [5] was at most 3 mg daily dose and the “dose of increased concern for reproductive or developmental toxicity in humans” value [5] was over 15 mg daily dose. The lesion load ([6]; 0.2 mg/kg and 0.8 mg/kg, given daily, compared to the vehicle group) was “reduction in lesion load”, the “lesions on the bladder and on/in the uterus” value ([6]; 30 mg/kg daily, compared with the vehicle group (WO 2013045407)) was “hardly any lesions could be found” and the AKR1C3 inhibition (AKR1C3) was “potent”. The “incidence of fetal visceral and skeletal variations” value ([7]; 60 mg/kg, compared to the concurrent or historical control) was “higher incidence”, the NOAEL ([7]; doses 0, 5, 17, 60 mg/kg, read-out: NOAEL for dev. toxicity) was 17 mg/kg and the NOAEL ([7]; read-out: NOAEL for maternal toxicity) was 60 mg/kg. The incidence of malformations ([7]; high dose 60 mg/kg, from eight dams, out of a total of 198 foetuses (control 1 foetus out of 211)) was 12 foetuses, the “higher systemic exposure (AUCunbound)” value ([7]; rats at 17 mg/kg vs once daily 3 mg/day in humans) was about 122 fold and the “higher systemic exposure (AUCunbound)” value ([7]; rats at 17 mg/kg vs once daily 30 mg/day in humans) was about 15 fold. The “higher systemic exposure (AUCunbound)” value ([7]; rats at 17 mg/kg vs twice daily 60 mg/day in humans) was “approximately 2 fold”.
